# Measured values: article PMC9298916, “The Discovery and Structure‐Activity Evaluation of (+)‐Floyocidin B and Synthetic Analogs” (Chemmedchem, 2021)
# Like-named read-outs stand apart in the source and are kept apart here.
# Key:
# [1] = Microsomal stability, human; format: in vitro ADME; conditions: 1 µM compound; for microsomal CLint at 1 µM / half-life at 1 µM: human, pooled liver microsomes, pH 7.4, human liver microsomes 0.5 mg/mL; for half-life at 1 µM: read-out: Microsomal stability t1/2, Human
# Description: (§1) 2.4. Assay descriptions for the profiling of all four stereoisomers of (+)-floyocidin B and (−)-avicennone C,1 the avicennone C-floyocidin B hybrids 35, ent-35, 36 and ent-36 as well as the natural product (+)-floyocidin A. […]
# (§2) Pooled liver microsomes are purchased. Microsomes are stored at –80 °C prior to use. Microsomes (final protein concentration 0.5 mg/mL), 0.1 M phosphate buffer pH 7.4, and test compound (final substrate concentration 1 µM; final DMSO concentration 0.25%) are preincubated at 37 °C prior to the addition of NADPH (final concentration 1 mM) to initiate the reaction. A minus cofactor control i ncubation is included for each compound tested where 0.1 M phosphate buffer pH 7.4 is added instead of NADPH. Two control compounds are included. All incubations are performed singularly for each test compound. Each compound is incubate d for 0, 5, 15, 30, and 45 min. The control is incubated for 45 min only. The reactions are stopped by transferring incubate into acetonitrile at the appropriat e time points, in a 1:3 ratio. The termination plates are centrifuged at 3,000 rpm for 20 min at 4 °C to precipitate the protein.
# (§3) From a plot of ln peak area ratio (compound peak area/internal standard peak area) against time, the gradient of the line is determined. Subsequently, half -life and intrinsic clearance are calculated using the equations below:
# (§4) Elimination rate constant (k) = (- gradient)
# (§5) Intrinsic clearance (CL )(µL/min/mg protein) = V x 0.693 […]
# (§6) where V = Incubation volume (µL)/Microsomal protein (mg)
# (§7) Relevant control compounds are assessed, ensuring intrinsic clearance values fall within the specified limits (if available). […]
# C. albicans FH2173 = assay: Micro-broth dilution growth inhibition, C. albicans (ATP quantification); format: cell-based; conditions: Candida albicans, FH2173, 48 h, read-out: MIC
# P. aeruginosa ATCC27853 = assay: Micro-broth dilution growth inhibition, P. aeruginosa; format: cell-based; conditions: Pseudomonas aeruginosa, 18 h
# S. aureus ATCC25923 = assay: Micro-broth dilution growth inhibition, S. aureus; format: cell-based; conditions: Staphylococcus aureus, 18 h
# [2] = system: M. catarrhalis ATCC25238I; assay: Micro-broth dilution growth inhibition, M. catarrhalis; format: cell-based
# [3] = Microsomal stability, mouse; format: in vitro ADME; conditions: 1 µM compound; for microsomal CLint at 1 µM / half-life at 1 µM: mouse, pooled liver microsomes, pH 7.4, mouse liver microsomes 0.5 mg/mL; for microsomal CLint at 1 µM: read-out: Microsomal stability CLint, Mouse; for half-life at 1 µM: read-out: Microsomal stability t1/2, Mouse
# Description: as §1, §2, §3, §4, §5, §6, §7
# Caco-2 cells = assay: Cellular permeability assay utilizing Caco2 cell line; conditions: 10 µM, 120 min
# [4] = as above; conditions: human
# E. coli ATCC25922 MHC = assay: Micro-broth dilution growth inhibition, E. coli in CAMH with 44 mM sodium bicarbonate (MHC); format: cell-based; conditions: Escherichia coli, ATCC25922, 18 h, E. coli ATCC25922 MHC (CAMH + 44 mM sodium bicarbonate), read-out: MIC
# HepG2 cells = assay: Cytotoxicity on HepG2 cells (CellTiterGlo); format: cell-based; conditions: 40 h
# Description: (§8) Cytotoxicity on THP1 and HepG2 cells
# (§9) After 4 hours of HepG2 cell line (provided by ATCC) plating at 2.500 cells /well in 384-w plates, compounds were added to the cells. After an incubation at 37 °C for 40 h, the CellTiterGlo assay (provided by Promega) was performed.
# (§10) Luminescence measurement is related to the cell viability. Compound activity is determined by using the control wells with no treatment as control (100% of growth). The assay was performed identically with THP1 cells. All incubations were […]
# M. tuberculosis H37Rv = assay: Growth inhibition, M. tuberculosis H37Rv (Middlebrook 7H9, CellTiter-Blue); format: cell-based; conditions: M. tuberculosis H37Rv (Mtb), 6 days
# physchem = format: physicochemical; conditions: for chromatographic logD: pH 7.4, Log D pH 7.4
# Description: 2.4. Assay descriptions for the profiling of all four stereoisomers of (+)-floyocidin B and (−)-avicennone C,1 the avicennone C-floyocidin B hybrids 35, ent-35, 36 and ent-36 as well as the natural product (+)-floyocidin A.
# Determination of logD 7.4
# LogD values at pH 7.4 were determined by a standardized HPLC method derived from by Genieser et al.8 The calculation of the logD value for measured compounds is performed by comparison of the retention times with standard compounds of known distribution coefficients between 1 -octanol and water at pH 7.4. […]
# 8 Krass, J. D., Jastorff, B., and Genieser, H.-G. Anal. Chem. 1997, 69, 2575–2581. […]
# E. coli ATCC25922 = assay: Micro-broth dilution growth inhibition, E. coli (CAMH); format: cell-based; conditions: Escherichia coli, 18 h
# THP1 cells = assay: Cytotoxicity on THP1 cells (CellTiterGlo); format: cell-based; conditions: for Cytotoxicity TC50 THP1: THP1 cells, 40 h
# Description: as §8, §9, §10
# [5] = Moraxella catarrhalis, ATCC25238I, read-out: MIC
# [6] = A2B in the presence of elacridar
# [7] = Mycobacterium tuberculosis, 144 h, read-out: MIC
# [8] = human liver microsomes 0.5 mg/mL
# [9] = mouse liver microsomes 0.5 mg/mL
Compound,microsomal CLint at 1 µM [1] [µL/min/mg],half-life at 1 µM [1] [min],MIC (C. albicans FH2173) [µg/mL],MIC (P. aeruginosa ATCC27853) [µg/mL],MIC (S. aureus ATCC25923) [µg/mL],"MIC [2, 5] [µg/mL]",microsomal CLint at 1 µM [3] [µL/min/mg],half-life at 1 µM [3] [min],Caco‐2 permeability recovery +Elacridar (Caco-2 cells; [6]),Caco‐2 permeability recovery A2B (Caco-2 cells) [%],MIC (E. coli ATCC25922 MHC) [µg/mL],Cytotoxicity TC50 HepG2 (HepG2 cells) [µM],MIC (M. tuberculosis H37Rv; [7]) [µg/mL],chromatographic logD (physchem),MIC (E. coli ATCC25922) [µg/mL],Cytotoxicity TC50 THP1 (THP1 cells) [µM],Caco‐2 permeability Papp A2B (Caco-2 cells),other results
"CCC/C=C/c1cc2c(cn1)[C@@H](O)[C@H]1O[C@@]1(CC=C(C)C)C2=O [compound 4, (1aR,2R,7aR)‐2‐Hydroxy‐7 a‐(3‐methylbut‐2‐en‐1‐yl)‐5‐((E)‐pent‐1‐en‐1‐yl)‐1 a,7 a‐dihydrooxireno[2,3‐g]isoquinolin‐7(2H)‐one]",72.7,19.1,> 128,> 128,> 128,16,349,3.97,14.2%,10.1,> 128,4.5,9.4,4.01,> 128,5.84,,"Papp at 120 min, 10 µM ([4]; Caco-2, Caco‐2 permeability Papp +Elacridar, A2B in the presence of elacridar): 5.62 ×10⁻⁶ cm/s; Papp A→B at 120 min, 10 µM ([4]; Caco-2, Caco‐2 permeability Papp A2B, A2B): 4.11 ×10⁻⁶ cm/s"
CCCC=Cc1ccc2c(c1)C(=O)C1(CC=C(C)C)OC1C2O (centres unmarked) [compound 35],45.5,30.5,> 128,> 128,> 128,64,1040,1.33,29.6%,76.0,> 128,9.39,9.4,4.7,> 128,12.9,135 10^−7 cm s^−1,Caco‐2 permeability Papp +Elacridar (Caco-2 cells; [6]): 181 10^−7 cm s^−1
CCC/C=C/c1ccc2c(c1)C(=O)[C@]1(CC=C(C)C)O[C@@H]1[C@H]2O [compound 36],39.7,34.9,> 128,> 128,> 128,8,259,5.36,,,> 128,16.1,9.4,4.73,> 128,15.1,,Cytotoxicity relative to 4 (THP1 cells; TC50 in THP‐1 and HepG2 compared with 4): three times less cytotoxic than 4
CCCC=Cc1ccc2c(c1)C(=O)C1(CC=C(C)C)OC1C2O (stereo not drawn) [ent‐35],,,,,,,,,[b] (46.1) %,37.2,,14.7,,,,12.9,162 10^−7 cm s^−1,"Microsomal stability CLint, Human [1, 8]: 40.5 μL/min/mg protein; Microsomal stability t1/2, Human [1, 8]: 34.3 min; MIC [2]: 32 µg/mL; Microsomal stability CLint, Mouse [3, 9]: 561 μL/min/mg protein; Microsomal stability t1/2, Mouse [3, 9]: 2.47 min; Caco‐2 permeability recovery +Elacridar (Caco-2 cells; A2B in the presence of elacridar, listed as ent-35): 46.1%; Caco‐2 permeability recovery A2B (Caco-2 cells; listed as ent-35): 37.2%; MIC (M. tuberculosis H37Rv): 9.4 µg/mL; Log D pH 7.4 (physchem; pH 7.4): 4.72"
